According to the NIST ThermoML archive (doi:10.1016/j.tca.2006.04.022):

Experiment: molar heat capacity at constant pressure
Conditions: 101.33 kPa, Vacuum adiabatic calorimetry

CCOS(=O)(=O)[O-].CCn1cc[n+](C)c1 [1-ethyl-3-methylimidazolium ethyl sulfate]
Conditions | molar heat capacity at constant pressure [J/K/mol]
79.23 K, Glass | 127.8
79.7 K, Glass | 128.6
80.51 K, Glass | 129.4
81.67 K, Glass | 130.9
82.84 K, Glass | 131.5
83.99 K, Glass | 133.2
85.31 K, Glass | 135.2
86.78 K, Glass | 136.3
88.25 K, Glass | 137.9
89.7 K, Glass | 138.8
91.13 K, Glass | 141.2
92.56 K, Glass | 142.2
93.97 K, Glass | 143.4
95.39 K, Glass | 145.2
96.79 K, Glass | 146.4
98.17 K, Glass | 147.5
99.54 K, Glass | 149.6
100.91 K, Glass | 151
102.27 K, Glass | 151.6
103.61 K, Glass | 152.9
104.96 K, Glass | 154.3
106.29 K, Glass | 155.3
107.62 K, Glass | 155.8
108.95 K, Glass | 157.3
110.26 K, Glass | 158.3
111.57 K, Glass | 159.1
112.87 K, Glass | 160.6
114.17 K, Glass | 162.4
115.46 K, Glass | 163.1
116.74 K, Glass | 163.6
118.02 K, Glass | 165.2
119.29 K, Glass | 166.8
120.55 K, Glass | 167.9
121.82 K, Glass | 168.9
123.06 K, Glass | 170.1
124.32 K, Glass | 170.7
125.55 K, Glass | 172.1
126.8 K, Glass | 173.9
128.22 K, Glass | 174.7
129.84 K, Glass | 176.7
131.45 K, Glass | 178.2
133.04 K, Glass | 178.9
134.63 K, Glass | 180
136.21 K, Glass | 181.3
137.77 K, Glass | 183.2
139.34 K, Glass | 184.6
140.89 K, Glass | 185.1
142.73 K, Glass | 187.4
144.86 K, Glass | 189.6
146.97 K, Glass | 191.6
149.07 K, Glass | 194.6
151.16 K, Glass | 196.7
153.21 K, Glass | 198.7
155.27 K, Glass | 200.9
157.3 K, Glass | 202.8
159.33 K, Glass | 203.6
161.34 K, Glass | 205.9
163.34 K, Glass | 208.6
165.33 K, Glass | 210.2
167.3 K, Glass | 212.6
169.27 K, Glass | 214.9
171.23 K, Glass | 216.9
173.18 K, Glass | 218.1
175.11 K, Glass | 220.4
177.05 K, Glass | 223.2
178.98 K, Glass | 226
180.91 K, Glass | 229.3
182.83 K, Glass | 231.6
184.74 K, Glass | 234.3
186.65 K, Glass | 238
188.56 K, Glass | 243.9
190.42 K, Glass | 251.8
192.11 K, Glass | 273.4
193.57 K, Glass | 313.7
194.94 K, Glass | 340.7
196.36 K, Liquid | 346.8
197.81 K, Liquid | 347.7
199.27 K, Liquid | 348.4
200.76 K, Liquid | 349.4
202.25 K, Liquid | 349.9
203.79 K, Liquid | 350.5
205.33 K, Liquid | 350.9
206.9 K, Liquid | 351.5
208.47 K, Liquid | 351.9
210.06 K, Liquid | 352.4
211.66 K, Liquid | 352.8
213.18 K, Liquid | 353.2
214.52 K, Liquid | 353.7
215.86 K, Liquid | 354.1
217.18 K, Liquid | 354.5
218.5 K, Liquid | 354.9
219.81 K, Liquid | 355.4
221.12 K, Liquid | 355.7
222.41 K, Liquid | 356.1
223.71 K, Liquid | 356.5
225 K, Liquid | 356.8
226.27 K, Liquid | 357.1
227.54 K, Liquid | 357.5
228.79 K, Liquid | 357.8
230.03 K, Liquid | 358.1
231.26 K, Liquid | 358.4
232.46 K, Liquid | 359
233.66 K, Liquid | 359.3
234.84 K, Liquid | 359.6
236.02 K, Liquid | 359.8
237.19 K, Liquid | 360.2
238.37 K, Liquid | 360.5
239.54 K, Liquid | 361
240.7 K, Liquid | 361.3
241.86 K, Liquid | 361.5
243.01 K, Liquid | 361.9
244.15 K, Liquid | 362.2
245.29 K, Liquid | 362.5
246.43 K, Liquid | 363.1
247.58 K, Liquid | 363.5
248.73 K, Liquid | 363.9
249.88 K, Liquid | 364.2
251.02 K, Liquid | 364.5
252.17 K, Liquid | 364.8
253.31 K, Liquid | 365.5
254.45 K, Liquid | 365.8
255.6 K, Liquid | 366.1
256.73 K, Liquid | 366.3
257.87 K, Liquid | 366.8
259 K, Liquid | 367.1
260.13 K, Liquid | 367.4
261.27 K, Liquid | 367.6
262.4 K, Liquid | 367.8
263.53 K, Liquid | 368
264.66 K, Liquid | 368.3
265.8 K, Liquid | 368.7
266.93 K, Liquid | 369.1
268.06 K, Liquid | 369.4
269.19 K, Liquid | 369.5
270.33 K, Liquid | 369.9
271.45 K, Liquid | 370.3
272.58 K, Liquid | 370.8
273.71 K, Liquid | 371
274.83 K, Liquid | 371.2
275.94 K, Liquid | 371.5
277.06 K, Liquid | 371.8
278.18 K, Liquid | 372
279.28 K, Liquid | 372.4
280.39 K, Liquid | 373
281.5 K, Liquid | 373.1
282.62 K, Liquid | 373.5
283.72 K, Liquid | 373.8
284.83 K, Liquid | 374.2
285.95 K, Liquid | 374.5
287.05 K, Liquid | 374.7
288.15 K, Liquid | 375
289.26 K, Liquid | 375.4
290.37 K, Liquid | 375.6
291.47 K, Liquid | 376
292.58 K, Liquid | 376.1
293.69 K, Liquid | 376.5
294.79 K, Liquid | 376.8
295.9 K, Liquid | 377
297 K, Liquid | 377.4
298.11 K, Liquid | 378
299.22 K, Liquid | 378.2
300.32 K, Liquid | 378.6
301.43 K, Liquid | 378.9
302.54 K, Liquid | 379.1
303.64 K, Liquid | 379.3
304.74 K, Liquid | 379.6
305.86 K, Liquid | 379.9
306.96 K, Liquid | 380.1
308.07 K, Liquid | 380.3
309.18 K, Liquid | 380.4
310.29 K, Liquid | 380.8
311.4 K, Liquid | 380.9
312.52 K, Liquid | 381.2
313.63 K, Liquid | 381.6
314.75 K, Liquid | 381.8
315.85 K, Liquid | 382
316.97 K, Liquid | 382.3
318.08 K, Liquid | 382.7
319.19 K, Liquid | 383
320.31 K, Liquid | 383.1
321.42 K, Liquid | 383.4
322.53 K, Liquid | 383.6
323.66 K, Liquid | 383.9
324.75 K, Liquid | 383.9
325.84 K, Liquid | 384.4
326.92 K, Liquid | 384.6
327.99 K, Liquid | 384.8
329.08 K, Liquid | 384.9
330.17 K, Liquid | 385.1
331.26 K, Liquid | 385.6
332.35 K, Liquid | 385.9
333.43 K, Liquid | 386.1
334.52 K, Liquid | 386.5
335.6 K, Liquid | 386.6
336.68 K, Liquid | 386.9
337.77 K, Liquid | 387.3
338.86 K, Liquid | 387.4
339.94 K, Liquid | 387.8
341.04 K, Liquid | 388.1
342.13 K, Liquid | 388.3
343.22 K, Liquid | 388.6
344.31 K, Liquid | 388.9
345.4 K, Liquid | 389.2
346.49 K, Liquid | 389.5
347.58 K, Liquid | 389.7
348.65 K, Liquid | 390
349.73 K, Liquid | 390.2
350.82 K, Liquid | 390.5
351.91 K, Liquid | 390.8
353.01 K, Liquid | 391.3
354.11 K, Liquid | 391.6
355.22 K, Liquid | 392
356.31 K, Liquid | 392.3
357.42 K, Liquid | 392.5
358.53 K, Liquid | 392.7
359.63 K, Liquid | 392.8
360.75 K, Liquid | 392.9
361.87 K, Liquid | 393.1
363 K, Liquid | 393.4
364.13 K, Liquid | 393.5
365.29 K, Liquid | 393.6
366.38 K, Liquid | 393.9
367.47 K, Liquid | 394.1
368.52 K, Liquid | 394.5
369.63 K, Liquid | 394.7
370.76 K, Liquid | 394.9
371.78 K, Liquid | 395.1
372.82 K, Liquid | 395.3
373.9 K, Liquid | 395.6
374.98 K, Liquid | 395.8
376.02 K, Liquid | 396.2
377.08 K, Liquid | 396.5
378.13 K, Liquid | 396.8
379.52 K, Liquid | 397.1
380.42 K, Liquid | 397.3
381.38 K, Liquid | 397.5
382.35 K, Liquid | 397.8
383.43 K, Liquid | 398
384.34 K, Liquid | 398.2
385.25 K, Liquid | 398.5
386.14 K, Liquid | 398.8
387.09 K, Liquid | 399.1
388.01 K, Liquid | 399.5
388.98 K, Liquid | 399.7
389.95 K, Liquid | 399.9
